Activity calls are given as the source filed them. The calls are words filed in the database; no cut-off is given here.
Tests used:
[1] = target: T1, Glucocorticoid receptor (Homo sapiens) (UniProt P04150); test: Percent inhibition of glucocorticoid receptor transcriptional activity at Dexamethasone EC50; NA=not active; type: functional
T1 sequence (whole entry): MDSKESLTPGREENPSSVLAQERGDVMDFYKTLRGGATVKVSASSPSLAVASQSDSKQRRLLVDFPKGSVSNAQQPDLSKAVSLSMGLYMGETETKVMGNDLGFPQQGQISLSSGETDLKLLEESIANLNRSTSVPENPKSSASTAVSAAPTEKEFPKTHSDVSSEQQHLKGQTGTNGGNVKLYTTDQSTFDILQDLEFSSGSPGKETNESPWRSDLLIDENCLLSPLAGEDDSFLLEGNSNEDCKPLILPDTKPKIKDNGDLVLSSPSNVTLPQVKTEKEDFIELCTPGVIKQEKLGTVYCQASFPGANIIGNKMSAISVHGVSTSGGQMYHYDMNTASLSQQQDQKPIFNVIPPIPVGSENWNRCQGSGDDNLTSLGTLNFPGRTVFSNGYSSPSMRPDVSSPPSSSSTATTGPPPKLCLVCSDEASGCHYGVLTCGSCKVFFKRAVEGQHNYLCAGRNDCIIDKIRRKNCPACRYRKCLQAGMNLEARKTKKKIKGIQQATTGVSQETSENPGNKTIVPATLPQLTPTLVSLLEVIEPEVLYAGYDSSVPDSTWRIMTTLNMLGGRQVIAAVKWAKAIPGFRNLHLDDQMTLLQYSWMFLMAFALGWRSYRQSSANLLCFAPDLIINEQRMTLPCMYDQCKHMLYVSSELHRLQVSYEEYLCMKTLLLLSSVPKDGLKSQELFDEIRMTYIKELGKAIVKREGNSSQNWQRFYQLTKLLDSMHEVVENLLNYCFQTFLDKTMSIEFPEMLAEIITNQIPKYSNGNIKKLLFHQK

[2] = target: T2, Mineralocorticoid receptor (Homo sapiens) (UniProt P08235); test: Percent inhibition of mineralocorticoid receptor transcriptional activity at aldosterone EC50; NA=not active; type: functional
T2 sequence (whole entry): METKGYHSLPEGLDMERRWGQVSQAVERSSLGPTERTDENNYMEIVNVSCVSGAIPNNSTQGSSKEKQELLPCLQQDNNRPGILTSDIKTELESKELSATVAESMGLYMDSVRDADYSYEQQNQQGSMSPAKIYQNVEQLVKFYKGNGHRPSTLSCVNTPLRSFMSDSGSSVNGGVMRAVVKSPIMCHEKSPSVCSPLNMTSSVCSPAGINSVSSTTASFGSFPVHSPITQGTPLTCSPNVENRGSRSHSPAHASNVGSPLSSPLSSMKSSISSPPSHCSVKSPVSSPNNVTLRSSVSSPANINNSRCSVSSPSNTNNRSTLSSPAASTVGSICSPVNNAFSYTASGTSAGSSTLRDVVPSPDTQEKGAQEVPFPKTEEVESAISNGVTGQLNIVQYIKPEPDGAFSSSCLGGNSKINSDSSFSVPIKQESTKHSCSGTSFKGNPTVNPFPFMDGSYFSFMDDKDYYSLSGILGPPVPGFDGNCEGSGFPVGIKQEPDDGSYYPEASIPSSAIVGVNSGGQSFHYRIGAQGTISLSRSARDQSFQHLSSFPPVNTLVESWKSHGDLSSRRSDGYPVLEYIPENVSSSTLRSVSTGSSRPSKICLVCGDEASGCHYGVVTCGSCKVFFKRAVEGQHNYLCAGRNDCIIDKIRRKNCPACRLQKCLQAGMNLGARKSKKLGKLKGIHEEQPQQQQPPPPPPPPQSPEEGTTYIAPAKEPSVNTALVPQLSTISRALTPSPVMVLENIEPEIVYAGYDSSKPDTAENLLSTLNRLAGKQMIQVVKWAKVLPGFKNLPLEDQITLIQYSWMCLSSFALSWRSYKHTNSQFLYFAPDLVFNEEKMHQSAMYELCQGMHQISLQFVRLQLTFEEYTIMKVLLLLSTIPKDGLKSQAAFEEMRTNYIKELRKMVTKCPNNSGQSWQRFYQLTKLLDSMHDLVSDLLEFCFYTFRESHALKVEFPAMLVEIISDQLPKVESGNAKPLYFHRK

[3] = target: T3, Mineralocorticoid receptor (Homo sapiens, UniProt P08235); test: Cross-reactivity as binding to human mineralocorticoid receptor (hMR); NA=not active; type: functional
T3 sequence (P08235 whole entry): T2 sequence (whole entry)

[4] = target: T4, Progesterone receptor (Homo sapiens, UniProt P06401); test: Antagonist activity against human progesterone receptor (hPR) in T47D human breast cancer cell line; type: functional, cell-based
T4 sequence (P06401 whole entry): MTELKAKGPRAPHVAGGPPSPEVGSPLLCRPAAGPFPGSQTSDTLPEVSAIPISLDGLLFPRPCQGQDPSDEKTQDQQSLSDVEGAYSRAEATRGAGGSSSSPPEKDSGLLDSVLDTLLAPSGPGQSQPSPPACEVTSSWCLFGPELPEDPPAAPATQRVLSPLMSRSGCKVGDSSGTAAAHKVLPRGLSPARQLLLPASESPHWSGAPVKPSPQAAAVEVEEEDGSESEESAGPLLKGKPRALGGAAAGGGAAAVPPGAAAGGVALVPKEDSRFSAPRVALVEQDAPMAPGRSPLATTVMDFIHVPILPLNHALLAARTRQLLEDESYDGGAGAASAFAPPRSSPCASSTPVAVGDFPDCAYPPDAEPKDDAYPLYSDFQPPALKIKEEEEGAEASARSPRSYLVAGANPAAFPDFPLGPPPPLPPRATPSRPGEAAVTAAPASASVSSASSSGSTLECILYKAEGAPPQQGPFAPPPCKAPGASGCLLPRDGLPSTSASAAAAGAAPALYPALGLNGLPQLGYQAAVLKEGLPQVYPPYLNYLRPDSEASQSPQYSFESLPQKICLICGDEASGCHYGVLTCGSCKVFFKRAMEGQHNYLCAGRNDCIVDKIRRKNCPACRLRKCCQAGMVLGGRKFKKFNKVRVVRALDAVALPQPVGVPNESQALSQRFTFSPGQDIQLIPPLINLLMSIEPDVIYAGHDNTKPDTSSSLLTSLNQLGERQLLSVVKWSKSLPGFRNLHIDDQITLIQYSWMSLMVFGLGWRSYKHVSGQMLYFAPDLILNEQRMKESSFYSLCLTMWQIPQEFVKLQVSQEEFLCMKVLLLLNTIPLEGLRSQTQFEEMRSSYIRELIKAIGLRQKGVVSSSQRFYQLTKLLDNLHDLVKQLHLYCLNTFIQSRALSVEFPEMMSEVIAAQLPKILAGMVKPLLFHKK

[5] = target: T4, Progesterone receptor; test: Binding affinity against human progesterone receptor (hPR) in a competitive binding assay
[6] = target: T4, Progesterone receptor; test: Antagonist activity against human progesterone receptor (hPR) using cotransfection assay in CV-1 cells; type: functional, cell-based

Compound: CC1=CC(C)(C)Nc2ccc(-c3ccc([N+](=O)[O-])s3)cc21
- Efficacy [1]: inactive
- Efficacy [2]: inactive
- IC50 [3]: Not Active
- IC50 [4]: 0.07 µM
- Ki [5]: 0.0026 µM
- IC50 [6]: 0.031 µM

Source: ChEMBL document CHEMBL1133403 (Bioorg Med Chem Lett, 2000)
